In patent publication US20120041035A1, “LEVAMLODIPINE COMPOUND PHARMACEUTICAL COMPOSITION” (SHIHUIDA PHARMACEUTICALS GROUP (JILIN) LTD, priority 2010, published 2012):

Tested on: primary hypertension patients (systolic pressure ≧160 mmHg)
Test: Clinical use in primary hypertension patients, 8-week treatment
Type: in vivo, human
Settings: after 8-week treatment, levamlodipine 5.0 mg/d, chlorthalidone 25.0 mg/d; for Edema Incidence / Hypokalemia Incidence: combined 2.5 mg/d and 12.5 mg/d; for Decrease of Systolic Pressure: combined levamlodipine 2.5 mg/d and chlorthalidone 12.5 mg/d, 30 patients each
Experimental: The selected primary hypertension patients (with a systolic pressure ≧160 mmHg) were divided into 3 groups of 30 patients each, the levamlodipine group was given levamlodipine at 5.0 mg/d; the chlorthalidone group was given chlorthalidone at 25.0 mg/d; and the combined administration group was given levamlodipine at 2.5 mg/d and chlorthalidone at 12.5 mg/d. After 8-week treatment, the decease of the systolic pressure, the edema incidence, and the hypokalemia incidence were observed.

Compound | Edema Incidence [%] | Hypokalemia Incidence [%] | Decrease of Systolic Pressure [mmHg]
CCOC(=O)C1=C(COCCN)NC(C)=C(C(=O)OC)[C@@H]1c1ccccc1Cl [Levamlodipine, 3-ethyl-5-methyl-2-(2-aminoethoxymethyl)-4-(2-chlorophenyl)-1,4-dihydro-6-methyl-3,5-pyridine dicarboxylate] | 10 | 0 | 22.7 ± 7.8
NS(=O)(=O)c1cc(C2(O)NC(=O)c3ccccc32)ccc1Cl (stereo not drawn) [Chlorthalidone, 5(2,3-dihydro-1-hydroxy-3-oxo-1H-isoindol-1-yl)-2-chlorobenzenesulfonamide] | 0 | 20.3 | 20.5 ± 8.5
